Results taken from US20250115558A1, “PYRIDAZINE DERIVATIVES AND RELATED USES” (NodThera Limited, priority 2023, published 2025).

Assays:
THP-1 = THP-1 IC50 assay; assay type: cell-based; details: Homo sapiens; THP-1 cells
[1] = test system: IL-1β release upon NLRP3 activation in peripheral blood mononuclear cells (PBMC); test: PBMC IC50 Determination Assay; assay type: cell-based; details: Homo sapiens; inhibition of IL-1β release; LPS-primed PBMC stimulated with ATP or nigericin
In short: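 Human PBMC from buffy coats primed 3 h with LPS (1 μg/mL in protocol B), then compound for 30 min, then ATP (5 mM) or nigericin (10 μM; protocol A only) for 1 h. IL-1β released into medium measured by ELISA at 450 nm (protocol A) or HTRF at […] (protocol B).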

Structure (SMILES): Cc1cc(Cl)cc(O)c1-c1ccc(CNc2c(C)noc2C)nn1 [Compound 56, 5-Chloro-2-(6-(((3,5-dimethylisoxazol-4-yl)amino)methyl)pyridazin-3-yl)-3-methylphenol]
- IC50 (THP-1): 1000 to 3000 nM
- IC50 [1]: 500 to 1000 nM

Structure (SMILES): Cc1cc(NCc2ccc(-c3c(C)cc(C(F)(F)F)cc3O)nn2)on1 [Compound 149]
- IC50 (THP-1): 1000 to 3000 nM
- IC50 [1]: 1000 to 3000 nM

Structure (SMILES): Cc1cc(C(F)(F)F)cc(O)c1-c1ccc(CN2C(=N)N(C)CC2=O)nn1 [Compound 23]
- IC50 (THP-1): 3000 to 10000 nM
- IC50 [1]: 3000 to 10000 nM

Structure (SMILES): Cc1cc(C(F)(F)F)cc(O)c1-c1ccc(CN2CCCCC2)nn1 [Compound 135]
- IC50 (THP-1): < 500 nM
- IC50 [1]: < 500 nM

Structure (SMILES): Cc1cc(Cl)cc(O)c1-c1ccc(CN(C)[C@@H]2CCOC2)nn1 [Compound 58, (R)-5-Chloro-3-methyl-2-(6-((methyl(tetrahydrofuran-3-yl)amino)methyl)pyridazin-3-yl)phenol]
- IC50 (THP-1): 1000 to 3000 nM
- IC50 [1]: 1000 to 3000 nM

Structure (SMILES): Cc1cc(C(F)(F)F)cc(O)c1-c1ccc(CNCC2CCCO2)nn1 (stereo not shown) [Compound 106]
- IC50 (THP-1): 3000 to 10000 nM
- IC50 [1]: 1000 to 3000 nM

Structure (SMILES): Cc1cc(C(F)(F)F)cc(O)c1-c1ccc(CNC2CCC(=O)N(C)C2)nn1 (stereo not shown) [Compound 111]
- IC50 (THP-1): < 500 nM
- IC50 [1]: < 500 nM

Structure (SMILES): Cc1cc(C(F)(F)F)cc(O)c1-c1ccc(CNC2CCN(C)CC2)nn1 [Compound 110]
- IC50 (THP-1): 1000 to 3000 nM
- IC50 [1]: 1000 to 3000 nM

Structure (SMILES): CC(=O)N1CCC(OCc2ccc(-c3c(C)cc(Cl)cc3O)nn2)C1 (stereo not shown) [Compound 68, 1-(3-((6-(4-Chloro-2-hydroxy-6-methylphenyl)pyridazin-3-yl)methoxy)pyrrolidin-1-yl)ethan-1-one]
- IC50 (THP-1): 500 to 1000 nM
- IC50 [1]: 500 to 1000 nM

Structure (SMILES): Cc1cc(C(F)(F)F)cc(O)c1-c1ccc(CNC(C)C)nn1 [Compound 99]
- IC50 (THP-1): 500 to 1000 nM
- IC50 [1]: < 500 nM

Structure (SMILES): CC(=O)N1CCC(NCc2ccc(-c3c(C)cc(C(F)(F)F)cc3O)nn2)CC1 [Compound 142]
- IC50 (THP-1): 500 to 1000 nM
- IC50 [1]: < 500 nM

Structure (SMILES): CC(=O)N1CC[C@@H](NCc2ccc(-c3c(C)cc(Cl)cc3O)nn2)C1 [Compound 72, (R)-1-(3-(((6-(4-Chloro-2-hydroxy-6-methylphenyl)pyridazin-3-yl)methyl)amino)pyrrolidin-1-yl)ethan-1-one]
- IC50 (THP-1): 1000 to 3000 nM
- IC50 [1]: 500 to 1000 nM

Structure (SMILES): CC(=O)N1CCC(NCc2ccc(-c3c(C)cc(C(F)(F)F)cc3O)nn2)C1 (stereo not shown) [Compound 24]
- IC50 (THP-1): 500 to 1000 nM
- IC50 [1]: < 500 nM

Structure (SMILES): Cc1cc(Cl)cc(O)c1-c1ccc(CN[C@@H]2CCOC2)nn1 [Compound 53, (R)-5-Chloro-3-methyl-2-(6-(((tetrahydrofuran-3-yl)amino)methyl)pyridazin-3-yl)phenol]
- IC50 (THP-1): < 500 nM
- IC50 [1]: < 500 nM

Structure (SMILES): COC1CCC(NCc2ccc(-c3c(C)cc(C(F)(F)F)cc3O)nn2)CC1 (stereo not shown) [Compound 140]
- IC50 (THP-1): 500 to 1000 nM
- IC50 [1]: < 500 nM

Structure (SMILES): Cc1cc(C(F)(F)F)cc(O)c1-c1ccc(CNCc2ccn(C)n2)nn1 [Compound 127]
- IC50 (THP-1): 1000 to 3000 nM
- IC50 [1]: 500 to 1000 nM

Structure (SMILES): Cc1cc(C2CC2)cc(O)c1-c1ccc(CNC2CCOCC2)nn1 [Compound 48, 5-Cyclopropyl-3-methyl-2-(6-(((tetrahydro-2H-pyran-4-yl)amino)methyl)pyridazin-3-yl)phenol]
- IC50 (THP-1): 1000 to 3000 nM
- IC50 [1]: 1000 to 3000 nM

Structure (SMILES): CC(=O)N1CC[C@H](NCc2ccc(-c3c(C)cc(Cl)cc3O)nn2)C1 [Compound 73, (S)-1-(3-(((6-(4-Chloro-2-hydroxy-6-methylphenyl)pyridazin-3-yl)methyl)amino)pyrrolidin-1-yl)ethan-1-one]
- IC50 (THP-1): < 500 nM
- IC50 [1]: < 500 nM

Structure (SMILES): Cc1cc(C(F)(F)F)cc(O)c1-c1ccc(CNCC2CCCCO2)nn1 (stereo not shown) [Compound 107]
- IC50 (THP-1): 3000 to 10000 nM
- IC50 [1]: 3000 to 10000 nM

Structure (SMILES): Cc1cc(C(F)(F)F)cc(O)c1-c1ccc(Cn2ccccc2=N)nn1 [Compound 119]
- IC50 (THP-1): 500 to 1000 nM
- IC50 [1]: 500 to 1000 nM
